Series [1] deals with T1, HDAC6 (Homo sapiens, UniProt Q9UBN7).
T1 sequence (Q9UBN7 1-1215): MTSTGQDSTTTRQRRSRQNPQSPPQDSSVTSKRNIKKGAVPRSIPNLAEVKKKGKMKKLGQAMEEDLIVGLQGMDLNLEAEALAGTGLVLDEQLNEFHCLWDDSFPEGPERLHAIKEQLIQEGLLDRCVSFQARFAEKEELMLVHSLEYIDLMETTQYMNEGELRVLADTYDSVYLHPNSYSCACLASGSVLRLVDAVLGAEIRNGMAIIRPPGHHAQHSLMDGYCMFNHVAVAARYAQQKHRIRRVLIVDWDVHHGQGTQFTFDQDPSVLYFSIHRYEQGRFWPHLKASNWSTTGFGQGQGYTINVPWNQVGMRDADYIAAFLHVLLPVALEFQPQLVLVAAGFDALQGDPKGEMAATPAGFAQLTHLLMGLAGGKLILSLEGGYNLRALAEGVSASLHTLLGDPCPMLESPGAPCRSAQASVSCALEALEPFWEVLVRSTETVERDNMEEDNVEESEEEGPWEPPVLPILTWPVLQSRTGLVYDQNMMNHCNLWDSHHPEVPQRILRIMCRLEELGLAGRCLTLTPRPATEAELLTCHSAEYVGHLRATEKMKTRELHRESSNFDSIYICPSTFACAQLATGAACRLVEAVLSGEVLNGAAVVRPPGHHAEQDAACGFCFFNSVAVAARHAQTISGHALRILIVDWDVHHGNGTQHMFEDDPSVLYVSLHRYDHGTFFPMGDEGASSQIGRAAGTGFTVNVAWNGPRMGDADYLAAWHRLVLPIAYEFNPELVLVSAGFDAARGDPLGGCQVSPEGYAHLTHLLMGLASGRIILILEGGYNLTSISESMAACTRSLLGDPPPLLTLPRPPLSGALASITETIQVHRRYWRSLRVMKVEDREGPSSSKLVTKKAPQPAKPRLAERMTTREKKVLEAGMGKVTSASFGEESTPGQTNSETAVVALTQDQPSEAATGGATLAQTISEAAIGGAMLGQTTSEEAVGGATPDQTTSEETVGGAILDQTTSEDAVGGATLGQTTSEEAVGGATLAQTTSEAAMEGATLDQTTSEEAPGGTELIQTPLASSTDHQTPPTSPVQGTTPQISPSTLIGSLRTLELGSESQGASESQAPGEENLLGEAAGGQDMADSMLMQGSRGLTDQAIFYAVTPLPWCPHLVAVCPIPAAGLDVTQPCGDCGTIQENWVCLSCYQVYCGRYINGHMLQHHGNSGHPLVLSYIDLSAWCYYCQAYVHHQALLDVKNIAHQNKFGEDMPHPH
The series can be described thus: Enzymatic HDAC fluorogenic assay (BPS Bioscience), HDAC6.
Description: (§4) Tubastain A (Portland, OR, USA) was purchased from TCI chemicals.
(§5) Enzymatic HDAC assay was performed following manufacturer’s protocol (BPS Bioscience). Briefly, HDAC assay buffer (35 µL) was mixed with 5 µL of BSA (1 mg/mL) and 5 µL of HDAC substrate (200 µM) in 96-well black plate. […] After incubation, 50 µL of undiluted 2 × HDAC developer was added to each well. After the mixture was incubated at RT for 15 min, fluorescence intensity was measured using a microplate reader at 360 nm excitation and 460 nm emission wavelengths.

Series [2] concerns the target T2, HDAC1 (Homo sapiens, UniProt Q13547).
T2 construct: purchased BPS Bioscience #50061
The series can be described thus: Enzymatic HDAC fluorogenic assay (BPS Bioscience), HDAC1. The series is classed as biochemical. The conditions noted are these: 37 °C, 30 min incubation.
Description: as §4, §5

The test system of series [3] is Ac-α-tubulin. The series can be described thus: Western blot of Ac-α-tubulin / α-tubulin in SH-SY5Y cells. The format is cell-based, human. How it is done: (§1) We further explored the precise cellular mechanism of compound 6b. Histone H3 and α-tubulin are well-known substrates of HDAC1 and HDAC6 [23, 24]. Therefore, inhibition of HDAC1 and HDAC6 enzymes promotes the accumulation of acetylated Histone H3 and α-tubulin, respectively. Therefore, SH-SY5Y cells were incubated with compound 6b at various concentrations (0, 1, 5, 10, and 20 µM) for 24 h and the expression levels of α-tubulin, Ac-α-tubulin, Histone H3, and Ac-Histone H3 were analysed by Western blot. […] The administration of 6b at relatively low concentration of 1 µM caused the acetylation of α-tubulin via inhibition of HDAC6.
We next explored the underlying molecular and biochemical mechanisms behind the morphological changes. α-Tubulin is the basic protein that constitutes the cytoskeleton and the dynamic acetylation and deacetylation of α-tubulin play an important role in the morphology of cells. […]. […] We next investigated if compound 6b reversed the loss of the acetylation caused by methamphetamine. […].
(§2) The cells were washed and lysed in ice-cold lysis buffer (23 mM Tris-HCl pH 7.6, 130 mM NaCl, 1% NP-40, 1% sodium deoxycholate, 0.1% SDS) and 30 µg of lysate per lane was separated by SDS-PAGE, followed by transferring to a PVDF membrane (Bio rad, Hercules, USA). The membrane was blocked with 5% skim milk in TBST, and then incubated with primary antibody. After being treated with goat-anti rabbit secondary antibody (Santa Cruz, CA, USA) coupled horseradish peroxidase, proteins were visualized by ECL chemiluminescence according to the instructions of the manufacturer’s instruction (GE Healthcare, Chicago, IL, USA).
(§3) Figure 2 Effect of compound 6b on the cell viability of SH-SY5Y and the acetylation status of α-tubulin and Histone H3. (A) SH-SY5Y cells were treated with the indicated concentrations of compound 6b for 24 h and the cell viability was measured using the colorimetric MTS assay. Data are presented as mean ± SD (n = 4). (B) SH-SY5Y cells were incubated with the indicated concentrations of compound 6b or Tubastatin A (Tub) for 24 h and the expression levels of α-tubulin, Ac-α-tubulin, Histone H3, and Ac-Histone H3 were analysed by Western blot. Tubastatin A was employed as a positive control and β-actin was used as a loading control. The p value was obtained by Student t-test. * p < 0.01 as compared to vehicle.
. (A) SH-SY5Y cells were incubated with the indicated concentrations of methamphetamine (METH) for 24 h and the expression levels of Ac-α-tubulin and α-tubulin were analysed by Western blot. β-actin was used as a loading control. […]
Background: In western blotting, separated proteins are transferred to a membrane and probed.

In series [4] the test system is Ac-Histone H3. The series can be described thus: Western blot of Ac-Histone H3 / Histone H3 in SH-SY5Y cells. Particulars: 24 h. The format is cell-based, human. How it is done:
as §1, §2, §3

Series [5] relates to SH-SY5Y cells. The series can be described thus: Assessment of cell morphology (phase contrast microscopy). The series is classed as cell-based, human. How it is done: SH-SY5Y cells (1 × 10^4 cells/well) were seeded in 6-well plate, and the cells were allowed to attach for 72 h. Culture medium was then changed to fresh medium containing METH (1 mM) for pretreat 4 h. After being preincubated for 4 h, add to compound 6b (5, 10, and 20 µM) for 24 h.
Figure 3 Effect of methamphetamine (METH) and compound 6b on the cell morphology and viability of SH-SY5Y cells. (A) Effect of methamphetamine on the cell viability of SH-SY5Y. Cells were incubated with the indicated concentrations of methamphetamine (METH) for 24 h and cell viability was measured using the colorimetric MTS assay. Data are presented as mean ± SD (n = 4). (B) Bright-field images of SH-SY5Y cells. […]

In series [6] the target is T1, HDAC6.
Description: as §4, §5
On the set-up of series [7]: method as in PMID 30597327. The conditions noted are these: hampered in vivo application; cited from earlier work.
For series [8], the system named is SH-SY5Y cells. The series can be described thus: Cell viability, colorimetric MTS assay. The series is classed as cell-based, human. The conditions noted are these: 24 h, up to 1 mM. How it is done: SH-SY5Y (1 × 10^3 cells/well) were seeded in 96-well plate, the medium volume was brought to 100 µL, and the cells were allowed to attach for 14 h. Various concentrations of compound 6b (1, 5, 10, 30, 50, 70, and 100 µM) and METH (0.1 and 1 mM) were then added to the wells. Cells were then incubated at 37 °C for 24 h. Cell viability was determined using the Promega Cell Titer 96 Aqueous One Solution cell proliferation assay. Absorbance at 490 nm was read on Tecan Infinite F200 Pro plate reader, and values were expressed as percent of absorbance from cells incubated in DMSO alone.
Figure 2 Effect of compound 6b on the cell viability of SH-SY5Y and the acetylation status of α-tubulin and Histone H3. (A) SH-SY5Y cells were treated with the indicated concentrations of compound 6b for 24 h and the cell viability was measured using the colorimetric MTS assay. Data are presented as mean ± SD (n = 4). (B) SH-SY5Y cells were incubated with the indicated concentrations of compound 6b or Tubastatin A (Tub) for 24 h and the expression levels of α-tubulin, Ac-α-tubulin, Histone H3, and Ac-Histone H3 were analysed by Western blot. […]
Figure 3 Effect of methamphetamine (METH) and compound 6b on the cell morphology and viability of SH-SY5Y cells. […] Cells were incubated with the indicated concentrations of methamphetamine (METH) for 24 h and cell viability was measured using the colorimetric MTS assay. […]
Background: Tetrazolium dyes change colour on reduction, which living cells bring about.

Setting [9] is: SH-SY5Y, 0, 0.5, 1, 2, and 3 mM, 24 h.

The values below come from paper PMC6940941, “Development of Thiazolidinedione-Based HDAC6 Inhibitors to Overcome Methamphetamine Addiction” (International Journal of Molecular Sciences, 2019).

One may read the IC50 as the point on the concentration scale where inhibition reaches its midpoint.

T2 sequence (Q13547 whole entry): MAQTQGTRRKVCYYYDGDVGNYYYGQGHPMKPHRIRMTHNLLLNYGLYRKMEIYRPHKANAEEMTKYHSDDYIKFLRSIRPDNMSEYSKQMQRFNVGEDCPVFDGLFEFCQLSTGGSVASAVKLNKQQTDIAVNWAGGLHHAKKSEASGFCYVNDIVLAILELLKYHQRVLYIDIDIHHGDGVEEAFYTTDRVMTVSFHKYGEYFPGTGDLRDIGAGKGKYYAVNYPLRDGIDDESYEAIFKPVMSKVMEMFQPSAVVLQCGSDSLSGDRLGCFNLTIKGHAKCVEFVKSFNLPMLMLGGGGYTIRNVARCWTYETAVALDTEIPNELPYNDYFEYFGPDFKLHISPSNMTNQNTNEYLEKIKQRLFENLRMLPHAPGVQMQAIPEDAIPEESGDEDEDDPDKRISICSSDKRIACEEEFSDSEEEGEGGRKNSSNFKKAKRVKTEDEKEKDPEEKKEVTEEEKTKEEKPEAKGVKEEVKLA

For the molecule `O=C(NO)c1cccc(CN2C(=O)CSC2=O)c1` [Compound 6a, 3-((2,4-Dioxothiazolidin-3-yl)methyl)-N-hydroxybenzamide], the IC50 was 1960 nM in series [1] and greater than 50000 nM in series [2].

For `CCCC1SC(=O)N(Cc2ccc(C(=O)NO)cc2)C1=O` (centres unmarked) [Compound 8a, 4-((2,4-Dioxo-5-propylthiazolidin-3-yl)methyl)-N-hydroxybenzamide], the values for the IC50 in series [1] and in series [2] were 79300 nM and greater than 100000 nM, respectively.

For `C=CCC1SC(=O)N(Cc2ccc(C(=O)NO)cc2)C1=O` (centres unmarked) [Compound 8b, 4-((5-Allyl-2,4-dioxothiazolidin-3-yl)methyl)-N-hydroxybenzamide], the IC50 in series [1] was 1300 nM; in series [2], greater than 100000 nM.

Regarding `O=C(NO)c1ccc(CN2C(=O)CSC2=O)cc1` [Compound 6b, 4-((2,4-Dioxothiazolidin-3-yl)methyl)-N-hydroxybenzamide], the “acetylation of α-tubulin after METH-promoted loss of acetylation” value in series [3] (SH-SY5Y pretreated with METH 3 mM for 4 h, then 6b (1 µM) for 24 h) was “significant increase”. Also, the “acetylation of α-tubulin” value in series [3] (SH-SY5Y, 0, 1, 5, 10, and 20 µM, 24 h) was “dose-dependently induced”. In addition, the “concentration that caused the acetylation of α-tubulin” value in series [3] (SH-SY5Y, 24 h) was 1 µM. In addition, the “acetylation of Histone H3” value in series [4] (SH-SY5Y, 0, 1, 5, 10, and 20 µM) is “dose-dependently induced”. In addition, the “protein level of Histone H3” value in series [4] (SH-SY5Y, 0-20 µM) is on record as “increases in proportion to the concentration”. Also, the “concentration able to promote the acetylation of Histone H3” value in series [4] (SH-SY5Y) is 10 µM. The IC50 in series [1] stood at 21 nM; in series [2], 388 nM. Also, in series [5] (SH-SY5Y pretreated with 1 mM METH for 4 h, then 5, 10, and 20 µM for 24 h, dose-dependent), the “effect on METH-induced cell morphology change” value is “reversed effect on the cell morphology change from a rounded shape back to a spindle shape”. For the same molecule, in series [6], the “Selectivity Index” value is on record as 18.5.

With `O=C(NO)c1ccc2c(c1)C(=O)c1ccccc1C2=O` [anthraquinone-based HDAC6 inhibitor], in series [7], the solubility result is recorded as “poor solubility”.

Turning to `CN[C@@H](C)Cc1ccccc1` [methamphetamine, Methamphetamine], in series [3] (setting [9]), the “acetylation of α-tubulin” value was “dose-dependently decreased” and the “expression level of α-tubulin” value is given as “remained unchanged”. Moreover, the “effect on cell viability” value in series [8] is “no toxicity”. Besides, the cell morphology entry in series [5] (SH-SY5Y, 1 mM) is reported as “rounded shape with a shrunken morphology”.

On to `O=C(NO)c1ccc(CN2C(=O)SC(Cc3ccccc3)C2=O)cc1` (centres unmarked) [Compound 8c, 4-((5-Benzyl-2,4-dioxothiazolidin-3-yl)methyl)-N-hydroxybenzamide], for which the IC50 in series [1] was 628 nM; in series [2], greater than 100000 nM.
